# Calls of active or inactive are those of the source.
# Columns and labels:
# [1] = growth suppression of beta-catenin-knockout colon cells, dose response, cell-based, HCT116, human colon tumor (AID 1045); format: functional;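 also: HCT116 colon tumor cells with beta catenin knocked out; cells exposed to compound for 60 hours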
# [2] = growth suppression of PTEN-null colon cells, dose response, cell-based, HCT116 PTEN knockout (AID 1047); format: functional;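 also: HCT116 colon tumor cells with PTEN knocked out; cells exposed to compound for 60 hours before readout; potency for loss of cell viability measured by luminescence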
# Cytochrome P450 2D6 = Cytochrome P450 2D6 (Homo sapiens, UniProt P10635);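 also: CYP2D6 member of a cytochrome P450 panel assay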
# Cytochrome P450 3A4 = Cytochrome P450 3A4 (Homo sapiens, UniProt P08684);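 also: CYP3A4 tested as one member of a cytochrome P450 panel screen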
# Leucine aminopeptidase = biological target: T1, Leucine aminopeptidase (Plasmodium falciparum 3D7, UniProt Q8IL11); assay: P. falciparum M17LAP inhibitors, primary screen, biochemical, fluorogenic H-Leu-NHMec substrate, 1536-well (AID 1619); format: functional
# T1 sequence (Q8IL11 whole entry): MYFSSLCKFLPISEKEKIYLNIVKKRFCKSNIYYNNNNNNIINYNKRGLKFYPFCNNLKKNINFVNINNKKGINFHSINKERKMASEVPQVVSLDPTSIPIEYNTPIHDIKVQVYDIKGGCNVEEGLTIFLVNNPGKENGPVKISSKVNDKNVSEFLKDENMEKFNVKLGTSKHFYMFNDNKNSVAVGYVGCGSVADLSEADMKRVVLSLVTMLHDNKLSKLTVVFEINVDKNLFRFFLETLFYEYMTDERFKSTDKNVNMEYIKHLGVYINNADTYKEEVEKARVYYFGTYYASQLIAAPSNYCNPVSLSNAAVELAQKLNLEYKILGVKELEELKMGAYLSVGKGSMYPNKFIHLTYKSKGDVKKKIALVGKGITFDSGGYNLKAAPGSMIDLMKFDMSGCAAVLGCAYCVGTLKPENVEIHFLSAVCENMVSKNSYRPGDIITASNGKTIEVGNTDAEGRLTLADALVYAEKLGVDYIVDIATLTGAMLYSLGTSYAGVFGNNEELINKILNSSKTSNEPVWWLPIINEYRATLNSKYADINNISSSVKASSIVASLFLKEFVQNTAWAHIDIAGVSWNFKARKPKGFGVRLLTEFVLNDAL
# BJ [3] = assay: cytotoxicity toward BJ-TERT fibroblasts, dose response, cell-based, RAS-independent, luminescence (AID 1933); format: functional; conditions: Homo sapiens
# [4] = cytotoxicity toward DRD oncogenic fibroblasts, dose response, cell-based, non-viral oncogenic, luminescence (AID 1934); format: functional; conditions: Homo sapiens
# BJ [5] = assay: cytotoxicity toward BJ-TERT-LT-ST fibroblasts, dose response, cell-based, RAS-independent, luminescence (AID 1935); format: functional; conditions: Homo sapiens;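 also: BJ fibroblasts immortalized with TERT plus LT and ST oncogenes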
# BJ [6] = assay: cells; format: functional, cell-based; conditions: Homo sapiens
# [7] = NIH-3T3 fibroblast cytotoxicity, dose response, cytotoxicity control, cell-based, fluorescence, Alamar Blue, secondary assay (AID 2327); format: functional;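 also: NIH-3T3 mouse fibroblasts cultured with fluconazole at 8 µg/mL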
# [8] = C. albicans growth with fluconazole, confirmation, fluorescence, retest (AID 2467); format: functional, cell-based
# [9] = biological target: FAD-linked sulfhydryl oxidase ALR (Homo sapiens, UniProt P55789); assay: inhibitors of human ALR sulfhydryl oxidase, dose response, biochemical, H2O2 detection, luminescence, cherry-pick (AID 493248)
# Paired box protein Pax-8 = Paired box protein Pax-8 (Homo sapiens, UniProt Q06710); assay: inhibitors of PAX8-driven TPO luciferase reporter, dose response, RMG-I cells, cherry-pick (AID 687027); format: functional, cell-based;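 also: luciferase reporter driven by Pax8 target thyroperoxidase promoter measured by SteadyGlo luminescence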
# [10] = tested on: Streptococcus sp. 'group A'; assay: growth inhibition of control SK(-) GAS strain, dose response, counter-screen for streptokinase expression inhibitor project, luminescence, kanamycin, BacTiterGlo, confirmation (AID 1900); format: functional, organism-based
# Streptokinase A = biological target: T2, Streptokinase A (Streptococcus pyogenes serotype M1, UniProt P10520); assay: S. pyogenes streptokinase expression inhibitors, potency, dose response, plasminogen activation absorbance, OD405 (AID 1914); format: functional, Streptococcus pyogenes M1 GAS;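 also: secreted streptokinase activity via plasminogen activation per viability signal from cell pellet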
# T2 sequence (P10520 whole entry): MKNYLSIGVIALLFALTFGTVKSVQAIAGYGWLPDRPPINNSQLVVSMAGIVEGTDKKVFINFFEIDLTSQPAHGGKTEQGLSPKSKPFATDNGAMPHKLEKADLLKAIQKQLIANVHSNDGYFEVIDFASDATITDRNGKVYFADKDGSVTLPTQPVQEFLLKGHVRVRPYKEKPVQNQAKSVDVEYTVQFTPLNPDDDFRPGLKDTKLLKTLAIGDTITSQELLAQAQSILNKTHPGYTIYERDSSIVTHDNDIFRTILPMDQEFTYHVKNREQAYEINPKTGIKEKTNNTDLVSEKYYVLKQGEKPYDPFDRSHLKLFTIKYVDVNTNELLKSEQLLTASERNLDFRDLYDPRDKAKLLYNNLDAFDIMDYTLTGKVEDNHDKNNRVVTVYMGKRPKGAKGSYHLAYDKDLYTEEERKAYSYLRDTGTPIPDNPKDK
# Streptococcus = assay: Group A Streptococcus viability loss, dose response, counter-screen for streptokinase expression inhibitor project, luminescence, BacTiterGlo (AID 1915); format: functional, organism-based;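 also: potency for reduction of bacterial viability or growth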
# Chain of Cytochrome P450 3A4 (P08684 whole entry): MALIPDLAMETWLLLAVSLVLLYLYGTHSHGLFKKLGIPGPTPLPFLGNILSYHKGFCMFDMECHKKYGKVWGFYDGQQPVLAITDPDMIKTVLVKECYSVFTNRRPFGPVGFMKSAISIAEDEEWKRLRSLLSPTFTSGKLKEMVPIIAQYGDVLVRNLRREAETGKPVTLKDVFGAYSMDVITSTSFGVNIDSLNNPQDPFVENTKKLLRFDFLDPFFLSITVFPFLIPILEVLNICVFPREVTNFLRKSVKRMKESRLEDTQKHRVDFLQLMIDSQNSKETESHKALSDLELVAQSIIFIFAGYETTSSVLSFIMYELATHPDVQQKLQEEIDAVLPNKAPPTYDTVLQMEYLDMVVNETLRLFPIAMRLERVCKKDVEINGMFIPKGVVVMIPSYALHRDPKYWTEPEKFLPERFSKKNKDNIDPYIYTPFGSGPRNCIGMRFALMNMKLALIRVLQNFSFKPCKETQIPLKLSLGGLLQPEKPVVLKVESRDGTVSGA
# Chain of Paired box protein Pax-8 (Q06710 whole entry): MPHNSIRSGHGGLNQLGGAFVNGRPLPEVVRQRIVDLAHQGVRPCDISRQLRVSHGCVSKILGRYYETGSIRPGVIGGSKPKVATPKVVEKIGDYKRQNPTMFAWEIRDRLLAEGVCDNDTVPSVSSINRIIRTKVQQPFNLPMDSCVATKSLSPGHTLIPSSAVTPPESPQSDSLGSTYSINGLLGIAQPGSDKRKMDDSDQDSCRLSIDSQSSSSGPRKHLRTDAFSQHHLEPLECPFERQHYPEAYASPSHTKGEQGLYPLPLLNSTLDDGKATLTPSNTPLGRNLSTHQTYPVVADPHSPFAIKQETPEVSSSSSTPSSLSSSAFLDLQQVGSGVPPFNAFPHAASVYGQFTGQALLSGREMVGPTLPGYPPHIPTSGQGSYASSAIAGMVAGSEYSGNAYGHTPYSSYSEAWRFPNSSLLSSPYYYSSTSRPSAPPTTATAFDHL
# Chain of Cytochrome P450 2D6 (P10635 whole entry): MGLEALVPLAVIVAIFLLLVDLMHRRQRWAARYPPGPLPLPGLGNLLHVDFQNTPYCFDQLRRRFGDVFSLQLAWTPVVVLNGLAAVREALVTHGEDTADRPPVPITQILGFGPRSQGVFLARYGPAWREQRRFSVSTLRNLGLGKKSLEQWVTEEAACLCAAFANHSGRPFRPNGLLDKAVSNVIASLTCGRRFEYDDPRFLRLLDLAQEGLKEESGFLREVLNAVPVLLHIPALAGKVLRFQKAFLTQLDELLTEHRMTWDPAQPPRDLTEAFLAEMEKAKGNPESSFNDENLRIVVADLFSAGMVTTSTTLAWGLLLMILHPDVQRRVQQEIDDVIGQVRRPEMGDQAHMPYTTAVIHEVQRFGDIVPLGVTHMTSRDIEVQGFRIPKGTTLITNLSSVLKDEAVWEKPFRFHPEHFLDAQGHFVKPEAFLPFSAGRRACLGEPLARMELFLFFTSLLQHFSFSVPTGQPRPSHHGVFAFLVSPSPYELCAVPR
# Chain of FAD-linked sulfhydryl oxidase ALR (P55789 whole entry): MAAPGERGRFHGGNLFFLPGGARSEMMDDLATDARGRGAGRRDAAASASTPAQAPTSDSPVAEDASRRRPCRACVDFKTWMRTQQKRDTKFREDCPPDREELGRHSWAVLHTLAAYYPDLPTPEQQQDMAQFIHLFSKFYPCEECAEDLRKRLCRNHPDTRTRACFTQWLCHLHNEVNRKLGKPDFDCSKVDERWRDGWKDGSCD
compound,measurement,setting,value
Cc1cccc(NC(=O)Cn2cnc3c(cnn3-c3ccc(F)cc3)c2=O)c1C,EC50,[1],14.2 µM (active)
same,EC50,[2],6.93 µM (active)
Cc1ccc(C(=O)/C=C/c2c[nH]c3ccccc23)cc1,AC50,Cytochrome P450 2D6,22.4 µM (inconclusive)
same,AC50,Cytochrome P450 3A4,25.1 µM (inconclusive)
c1ccc(-c2nnc(Sc3ncnc4c3cnn4-c3ccccc3)[nH]2)cc1,IC50,Leucine aminopeptidase,64.8 µM (active)
CC1SCC(=O)N(CC(=O)Nc2ccc3c(c2)OCO3)C1=O (stereo not drawn),IC50,Leucine aminopeptidase,29.4 µM (active)
CN(NC(=O)c1ccccc1)c1nc2ccccc2nc1C(F)(F)F,EC50,BJ [3],18.4 µM (active)
same,EC50,[4],16.5 µM (active)
same,EC50,BJ [5],17.3 µM (active)
same,EC50,BJ [6],26.9 µM (active)
CC(C)CN1CC[C@@]2(CCCN(C(=O)c3cnccn3)C2)C1,AC50,Cytochrome P450 3A4,15.8 µM (inconclusive)
CCCC(O)(CCC)C(=O)NNc1ccc(C)cc1,EC50,[7],> 160 µM (inconclusive)
same,EC50,[8],> 38 µM (not active)
CCOC(=O)c1sc(NC(=O)c2cc(-c3ccc(C)cc3)nc3ccccc23)c(C#N)c1C,EC50,[1],10.5 µM (active)
same,EC50,[2],9.45 µM (active)
O=C(CSc1ncccc1C(=O)O)NCCC1=CCCCC1,IC50,Leucine aminopeptidase,29.2 µM (active)
Nc1nnc(Nc2ccc(Cl)cc2)[nH]1,IC50,Leucine aminopeptidase,6.6 µM (active)
same,AC50,[9],4.22 µM (active)
CO[C@@H]1/C=C\CC(=O)N[C@@H](C)C(=O)OC[C@H](NS(=O)(=O)c2ccc(C)cc2)[C@H](C)/C=C\CC(=O)OC[C@H]1C,AC50,Cytochrome P450 3A4,3.98 µM (inconclusive)
O=C(N/N=C/c1ccsc1)c1cc(-c2cccs2)nc2ccccc12,AC50,Paired box protein Pax-8,51.8 µM (active)
O=C(N/N=C/c1ccco1)c1cc(-c2ccncc2)nc2ccccc12,EC50,BJ [3],15.2 µM (active)
same,EC50,[4],23.3 µM (active)
same,EC50,BJ [5],> 75 µM (not active)
same,EC50,BJ [6],60.7 µM (active)
N#C[C@H]1[C@H](c2ccc(C#CC3CCCCC3)cc2)[C@H](CO)N1C(=O)Nc1ccc(F)cc1,AC50,Paired box protein Pax-8,20.8 µM (active)
C[C@@H]1CCCCO[C@@H](CN(C)Cc2ccc(C(F)(F)F)cc2)[C@@H](C)CN([C@@H](C)CO)C(=O)c2cc(NS(=O)(=O)c3ccc(F)cc3)ccc2O1,AC50,Paired box protein Pax-8,8.7 µM (active)
Cc1ccc(S(=O)(=O)N[C@@H]2C=C[C@@H](CC(=O)N3CCC(Cc4ccccc4)CC3)O[C@@H]2CO)cc1,AC50,Paired box protein Pax-8,13.3 µM (active)
Cc1ccc(S(=O)(=O)Nc2ccc3c(c2)C(=O)N([C@@H](C)CO)C[C@@H](C)[C@H](CN(C)S(=O)(=O)c2ccc(Cl)cc2)OCCCC[C@@H](C)O3)cc1,AC50,Paired box protein Pax-8,4.47 µM (active)
C/C(N)=C(/C#N)C(=O)COC(=O)c1cc(-c2ccc(Br)cc2)nc2ccccc12,EC50,[10],11.9 µM (active)
same,EC50,[1],24.9 µM (active)
same,EC50,Streptokinase A,4.43 µM (active)
same,EC50,[2],25 µM (active)
same,EC50,Streptococcus,18.7 µM (active)
